In patent publication US20230372350A1, “ASTROCYTIC TRPA1 CHANNEL INHIBITION AS A NOVEL NEUROPROTECTIVE THERAPEUTIC TARGET IN THE PRODROMAL PHASES OF ALZHEIMER'S DISEASE” (priority 2020, published 2023):

Key:
[1] = test system: dendritic spines of CA1 pyramidal neurons, Thy1-eYFP-H-APP/PS1-21 mice; experiment: Chronic intraperitoneal treatment: analysis of dendritic spines; format: in vivo, mouse; settings: 3 months, treated from 14th postnatal day
Description: In some experiments, APP/PS1-21 mice were crossed with the Thy1-eYFP-H murine transgenic line which expresses the fluorescent protein eYFP in specific neuron subpopulations. This solution is then diluted to 1 μg/μl in an isotonic solution containing 1% Pluronic F-127 and 0.9% NaCl. The animals are injected daily intraperitoneally at a dose of 5 mg/kg of body mass. Sterile 0.5 ml BD MicroFine syringes with no dead volume, equipped with a 30G (0.3 mm) needle are used for the injections. The injection is started from the 14th postnatal day (appearance of the expression of the Thy1gene promoter in the hippocampus, triggering the overexpression of Aβ in the APP/PS1-21 murine model) Hippocampal sections from Thy1-eYFP-H-APP/PS1-21 mice were imaged using a Zeiss Airyscan module with a 100× (NA 1.4) Plan Apochromat oil immersion objective. Confocal image stacks (increment of 200 nm) were performed with a voxel size of 0.041×0.041×0.2 μm. The 3D analysis of the spine density, of the spine volume and the spine classification was performed using NeuronStudio software (Icahn School of Medicine at Mount Sinai, USA). The length of individual dendrites was automatically measured as well as the number and volume of associated dendritic spines which were classified as […], thin or mushroom using automated 3D shape classification. For each condition, 10 dendrites were imaged and 700 dendritic spines were analyzed.

[2] = test system: CA1 pyramidal neurons of APP/PS1-21 and WT mice; experiment: Chronic intraperitoneal treatment: whole-cell recording of sEPSCs of CA1 pyramidal neurons; format: in vivo, mouse
Description: The used model is a transgenic murine model obtained on a C57BL/6J genetic background which co-expresses the mutated human form of the amyloid precursor protein (mutated APP KM670/671NL) and of presenilin 1 (mutated PS1 L166P) under the control of the neural promoter Thy1. The presence of these two mutations allows increased production of the Aβ peptide from the 14th postnatal day. This leads to cerebral amyloidosis with the appearance of the first senile plaques around 8 postnatal weeks. This amyloid pathology is accompanied by inflammatory gliosis (microgliosis and astrogliosis detectable from 4 months), dendritic spine dystrophy and tau hyperphosphorylation (around 8 months). Cognitive behavioral disorders, and in particular of learning and spatial memory, are developed in around 6 to 8 months. This model was set-up and described by Rebecca Radde in 2006 (Radde et al., EMBO reports, 2006) and is widely used by the scientific community. This model is available in the animal facility of the Institut des Neurosciences de Grenoble and has been bred by the inventors since 2014. This solution is then diluted to 1 μg/μl in an isotonic solution containing 1% Pluronic F-127 and 0.9% NaCl. The animals are injected daily intraperitoneally at a dose of 5 mg/kg of body mass. Sterile 0.5 ml BD MicroFine syringes with no dead volume, equipped with a 30G (0.3 mm) needle are used for the injections. The carrier (10% DMSO, 1% Pluronic F-127, 0.9% NaCl) is used as a control and is also injected daily, according to the same procedure, into the WT and APP/PS1 control animals (carrier groups). The injection is started from the 14th postnatal day (appearance of the expression of the Thy1gene promoter in the hippocampus, triggering the overexpression of Aβ in the APP/PS1-21 murine model) Coronal sections of the hippocampus (thickness 300 μm) were prepared from APP/PS1-21 transgenic mice (1 month and 3 months old) or from WT mice from the same litter. The mice were sacrificed by decerebration and decapitation. The brain was quickly removed and sectioned in ice-cold ACSF containing (in mM) : 2.5 KCl, 7 MgCl2, 0.5 CaCl2, 1.2 NaHPO4, 25 NaHCO3, 11D-glucose and 234 sucrose bubbled with 95% of O2 and 5% of CO2 with a V[…] vibratome (Leica, Germany). The sections containing the hippocampus were placed in ACSF containing (in mM) : 126 NaCl, 2.5 KCl, 1.2 MgCl2, 2.5 CaCl2, 1.2 NaH2PO4 bubbled with 95% of O2 and 5% of CO2 and supplemented with 1 mM of sodium pyruvate at room temperature for a recovery period. Whole-cell recordings were performed on visually identified CA1 pyramidal neuron somas. The patch pipettes (4-6 MΩ) were filled with an internal solution containing (in mM): 105 K-gluconate, 30 KCL, 10 phosphocreatine, 10 HEPES, 4 ATP-Mg, 0.3 GTP-Tris, 0.3 EGTA, adjusted to pH 7.2 with KOH. Spontaneously excitatory postsynaptic currents (sEPSCs) were collected at a membrane holding potential of -60 mV which is close to the GABA reversal potential. All recordings were made at room temperature (22-24° C.) and only a single neuron was studied per section. The sEPSCs and their kinetics were analyzed, after a stabilization period of 10 minutes, 5 minutes from the recordings. Access resistance was constantly monitored and recordings were excluded from this study when this parameter varied more than 20% during the experiment. Recordings were analyzed using the Clampfit module of pClamp8 software (Molecular Devices, USA) with a single one at 20 pA to exclude miniature sEPSCs.

[3] = APP/PS1-21 mice, 3 months, 5 mg/kg i.p. from 14th postnatal day
[4] = WT mice, 3 months, chronic treatment 5 mg/kg i.p.

Structure (SMILES): CC(C)c1ccc(NC(=O)Cn2cnc3c2c(=O)n(C)c(=O)n3C)cc1 [HC030031, 2-(1,3-Dimethyl-2,6-dioxo-1,2,3,6-tetrahydro-7H-purin-7-yl)-N-(4-isopropylphenyl)acetamide]
- dendritic spine density [1]: 1.32±0.08 spine/μm
- mushroom-shaped spines [1]: 64.0±1.7%
- thin spines [1]: 26.7±2.0%
- sEPSC amplitude ([2]; 1-month old mice, 5 mg/kg i.p. daily from 14th postnatal day): no impact
- amplitude of sEPSCs [2, 3]: 33.4±1.4 pA
- frequency of sEPSCs [2, 3]: 0.10±0.01 Hz
- frequency of sEPSCs ([2]; APP/PS1-21 transgenic mice, 1 month, 5 mg/kg i.p. daily from 14th postnatal day): 0.10±0.02 Hz
- frequency of sEPSCs ([2]; WT litter mice, 1 month, 5 mg/kg i.p. daily from 14th postnatal day): 0.10±0.04 Hz
- amplitude of the sEPSCs [2, 4]: no effect
- frequency of the sEPSCs [2, 4]: no effect
